Results from article PMC11013038, “Design, Synthesis, and Evaluation of B-(Trifluoromethyl)phenyl Phosphine–Borane Derivatives as Novel Progesterone Receptor Antagonists” (Molecules, 2024).

How the values were obtained:
[1] = biological target: T1, progesterone receptor (PR) (Homo sapiens, UniProt P06401); test: T47D alkaline phosphatase assay, PR antagonistic activity in the presence of 1 nM P4; type: cell-based; conditions: for IC50: T47D cells, 1.0 nM P4, 48 h, mean ± SD from three independent experiments
T1 construct: alkaline phosphatase assay with the T47D human breast cancer cell line; endogenous in cells; host or cells: T47D
T1 sequence (P06401 1-933): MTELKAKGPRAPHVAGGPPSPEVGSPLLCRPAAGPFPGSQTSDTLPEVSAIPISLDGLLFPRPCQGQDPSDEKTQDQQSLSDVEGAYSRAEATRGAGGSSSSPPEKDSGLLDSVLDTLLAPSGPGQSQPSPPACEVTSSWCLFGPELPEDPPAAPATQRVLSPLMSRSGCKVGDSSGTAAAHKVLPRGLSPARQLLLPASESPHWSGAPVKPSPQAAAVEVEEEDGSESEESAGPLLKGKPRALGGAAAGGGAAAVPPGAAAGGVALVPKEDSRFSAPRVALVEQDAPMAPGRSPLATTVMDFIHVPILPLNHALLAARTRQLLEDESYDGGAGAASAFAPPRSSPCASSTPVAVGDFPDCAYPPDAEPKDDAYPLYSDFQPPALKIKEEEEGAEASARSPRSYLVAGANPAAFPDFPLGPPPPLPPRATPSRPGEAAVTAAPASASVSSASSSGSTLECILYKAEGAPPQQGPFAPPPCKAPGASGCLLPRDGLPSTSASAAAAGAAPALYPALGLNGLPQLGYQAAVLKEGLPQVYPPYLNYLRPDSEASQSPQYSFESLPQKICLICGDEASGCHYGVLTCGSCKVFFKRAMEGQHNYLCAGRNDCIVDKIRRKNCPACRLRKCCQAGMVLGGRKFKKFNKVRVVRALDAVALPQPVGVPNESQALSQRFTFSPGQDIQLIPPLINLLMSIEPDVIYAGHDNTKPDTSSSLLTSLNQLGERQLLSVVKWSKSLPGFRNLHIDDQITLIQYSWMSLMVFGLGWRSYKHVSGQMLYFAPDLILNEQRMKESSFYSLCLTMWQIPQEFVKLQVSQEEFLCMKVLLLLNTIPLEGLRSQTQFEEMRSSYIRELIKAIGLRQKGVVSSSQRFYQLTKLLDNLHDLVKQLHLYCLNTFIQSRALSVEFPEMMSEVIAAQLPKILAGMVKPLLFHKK
Description: The PR agonistic and antagonistic activities of the synthesized phosphine–borane derivatives were evaluated using an alkaline phosphatase assay with the T47D human breast cancer cell line. […] The basal alkaline phosphatase activity was also not affected by the tested compounds alone. […] The PR antagonistic activities of the compounds were assessed in the presence of 1 nM of P4 (5). We also calculated the molecular volume of each compound to investigate the structure–activity relationship (SAR). Table 2 summarizes the PR antagonistic activity and calculated volumes of the synthesized compounds. […] We investigated the binding affinity of the compounds toward the PR ligand-binding domain (LBD) using a fluorescence polarization assay system. […] We also investigated the activity of compounds 28 and 34 toward the androgen receptor (AR) by means of cell-proliferation promoting/inhibitory activity toward androgen-dependent SC-3 cells. […].
T47D alkaline phosphatase assays were performed as previously described, with minor modifications. Briefly, the human breast cancer cell line T47D (HMS LINCS database Accession Numbers: 50541) was routinely cultivated in RPMI 1640 medium with 10% FBS at 37 °C in a 5% CO2 humidified incubator. The cells were plated in 96-well plates and incubated overnight in a 5% CO2 humidified incubator at 37 °C. The next day, the cells were treated with a fresh medium containing the test compound in the presence of 1 nM of progesterone and further incubated for 48 h. The medium was aspirated, and the cells were fixed with 100 μL of 1.8% formalin–PBS. The fixed cells were washed with PBS, and 100 μL of an assay buffer (1 mg/mL p-nitrophenol phosphate in diethanolamine water solution, pH 9.0) was added. The mixture was incubated at room temperature for 2 h under light-shielded conditions. The absorbance was measured at 405 nm using a DTX 880 Multimode Detector (Beckman Coulter, Brea, CA, USA). All data points were measured in triplicate, and IC50 values were calculated from three independent experiments.

androgen receptor (AR) = biological target: T2, androgen receptor (AR) (Mus musculus, UniProt P19091); test: SC-3 cell proliferation assay, AR agonistic activity (compound alone); type: cell-based, murine; conditions: for EC50: SC-3 cells, induction of cell proliferation by single treatment of the compound, 0.01 μM to 10 μM, read-out: EC50 (agonist); for effect on SC-3 cell growth in the absence of dihydrotestosterone (AR agonistic activity): androgen-dependent SC-3 cells
T2 construct: SC-3 cells were cultured in MEMα (Fujifilm Wako Co.) supplemented with 2 %; endogenous in cells; host or cells: SC-3
T2 sequence (P19091 1-899): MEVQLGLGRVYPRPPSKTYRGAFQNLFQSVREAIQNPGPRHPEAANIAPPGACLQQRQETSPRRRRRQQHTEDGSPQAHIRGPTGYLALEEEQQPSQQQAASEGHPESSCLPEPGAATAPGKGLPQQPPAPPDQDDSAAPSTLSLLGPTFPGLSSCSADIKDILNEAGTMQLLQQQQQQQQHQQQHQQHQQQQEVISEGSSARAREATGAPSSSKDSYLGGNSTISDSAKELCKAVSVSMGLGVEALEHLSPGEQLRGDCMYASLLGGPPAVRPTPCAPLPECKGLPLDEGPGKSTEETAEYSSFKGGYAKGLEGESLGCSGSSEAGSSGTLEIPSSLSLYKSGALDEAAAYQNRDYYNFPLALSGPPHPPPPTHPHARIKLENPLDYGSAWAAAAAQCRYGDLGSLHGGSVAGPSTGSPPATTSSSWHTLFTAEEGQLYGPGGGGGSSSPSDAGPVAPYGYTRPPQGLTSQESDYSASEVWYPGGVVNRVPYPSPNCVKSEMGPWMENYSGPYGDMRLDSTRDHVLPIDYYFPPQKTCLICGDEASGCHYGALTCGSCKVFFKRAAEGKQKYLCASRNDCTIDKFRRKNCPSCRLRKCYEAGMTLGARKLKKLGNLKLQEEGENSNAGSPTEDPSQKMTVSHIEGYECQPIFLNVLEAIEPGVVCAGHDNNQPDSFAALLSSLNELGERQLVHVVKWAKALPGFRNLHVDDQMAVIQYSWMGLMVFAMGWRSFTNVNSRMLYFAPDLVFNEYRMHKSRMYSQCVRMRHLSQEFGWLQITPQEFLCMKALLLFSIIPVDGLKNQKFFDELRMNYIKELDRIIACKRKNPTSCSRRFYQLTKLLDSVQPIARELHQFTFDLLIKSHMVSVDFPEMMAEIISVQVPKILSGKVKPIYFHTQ

Row | potency relative to triisopropylphosphine derivative 32 ([1]; T47D alkaline phosphatase assay, comparison of IC50) | IC50 [1] | EC50 (androgen receptor (AR)) | effect on SC-3 cell growth in the absence of dihydrotestosterone (AR agonistic activity) (androgen receptor (AR)) | Compound
1 | approximately three times more potent | 0.54 ± 0.09 µM | > 10 µM | did not affect cell growth | FC(F)(F)c1ccc([BH2-][P+](C2CC2)(C2CC2)C2CC2)cc1 [Compound 34, B-4-(Trifluoromethyl)phenyl Tricyclopropylphosphine–Borane]
2 | – | > 10 µM | > 10 µM | did not affect cell growth | C[P+](C)(C)[BH2-]c1ccc(C(F)(F)F)cc1 [Compound 28, B-4-(Trifluoromethyl)phenyl Trimethylphosphine–Borane]
